Experimental data taken from ChEMBL document CHEMBL1135287, “Anisylazoformylarginine: a superior assay substrate for carboxypeptidase B type enzymes” (Bioorg Med Chem Lett, 2002).

Legend:
Sus scrofa [1] = organism: Sus scrofa; test: Specificity constant kcat/Km was obtained at pH of 7.9, 25 degree C by the porcine carboxypeptidase B
Sus scrofa [2] = organism: Sus scrofa; test: Kinetic constant in the presence of porcine carboxypeptidase B

- k cat/Km (Sus scrofa [1]): 1e+06 M⁻¹ s⁻¹
- Km (Sus scrofa [2]): 44 µM
- k cat (Sus scrofa [2]): 44 s⁻¹
SMILES: COc1ccc(/N=N/C(=O)N[C@@H](CCCN=C(N)N)C(=O)O)cc1
